From patent US20210032374A1, “ISOLATED SAPOSHNIKOVIA DIVARICATA POLYSACCHARIDE AND USE THEREOF” (SHANGHAI GREEN VALLEY PHARMACEUTICAL CO., LTD., priority 2018, published 2021)

Legend:
Assay type in all cases: in vivo, Kunming mice
[1] = test system: mice with hyperlipoidemia; experiment: Liver TC and TG contents and liver weight coefficient in mice with hyperlipoidemia; conditions: positive drug 40 mg/kg
Source text: A hyperlipoidemia model was established with reference to the methods as described in the references (Liyan Sun, Zhenliang Liu, Jinxia Sun, et al., Effect of Imperata cylindrica polysaccharide on hypoxia tolerance in mice, China Journal of Hospital Pharmacy, 2008, 28(2): 96-99; Bin Leng, Intervention of immunoregulation and renal fibrosis by Imperata cylindrica polysaccharide in rats with IgA nephropathy, Dissertations of Guilin Medical University, 2013; Shijing Lv, Qicai Long, Deyuan He, et al., Regulation of lymphocyte proliferation and T cell subpopulation by Imperata cylindrica polysaccharide in patients with hepatitis B, [Conference Paper] 2001—The Second National Academic Conference on Immunology of Traditional Chinese Medicine). Experimental method: The mice were kept at a temperature of 20±2° C. and a humidity of 50±5% under 12 hours of light and 12 hours of darkness for 3 days, during which the mice were allowed to access to food and water ad arbitrium. […] The serum TC, TG, LDL-C and HDL-C levels were measured. A part of the liver tissue of the mice was took, homogenized, and measured for liver TC and TG contents, as well as SOD and GSH-px activities and MDA content. […]

[2] = test system: mice with diabetes mellitus induced by streptozotocin (STZ); experiment: Fast blood glucose (FBG) in mice with STZ-induced diabetes mellitus; conditions: 25 mg/kg oral gavage daily, STZ diabetic mice, x ± S.D, n = 10
Experimental: Experimental animals: healthy male Kunming mice of clean grade (weighed 18-22 g, provided by Shanghai SLAC Laboratory Animal Co., Ltd.). Experimental method: […] The diabetes mellitus model mice were randomly grouped into a model group (STZ 120 mg/kg), a low-dose Saposhnikovia divaricata polysaccharide group (SDP 50 mg/kg), a high-dose Saposhnikovia divaricata polysaccharide (SDP 200 mg/kg) group, and a positive drug (Glibenclamide, GLI 25 mg/kg) control group, 10 mice per group. For each dosing group, the mice were dosed by oral gavage at 0.2 ml/10 g body weight at 8:00 am every day. The normal control group and the model group were given an equal volume of distilled water. During the experiment, the mice in each group were allowed to access to water ad arbitrium. The FBG and body weight were measured every 10 days. 30 days after the dosing, the mice were treated, and the following indexes were measured.

[3] = test system: mice with diabetes mellitus induced by streptozotocin (STZ); experiment: Glucose tolerance (i.p. glucose load) in mice with STZ-induced diabetes mellitus; conditions: 25 mg/kg, x ± S.D, n = 10
Experimental: Experimental method: The mice were kept at a temperature of 20±2° C. and a humidity of 50±5% under 12 hours of light and 12 hours of darkness for 3 days, during which the mice were allowed to access to food and water ad arbitrium. 10 healthy mice were selected as the normal control group (Control). The remaining mice were intraperitoneally injected with a streptozotocin (STZ) solution at 0.2 ml/10 g body weight. 72 h later, the fast blood glucose (FBG) of the mice was measured. The mice having an FBG value higher than 11.1 mmol/L and lower than 25 mmol/L were selected as diabetes mellitus model mice. The diabetes mellitus model mice were randomly grouped into a model group (STZ 120 mg/kg), a low-dose Saposhnikovia divaricata polysaccharide group (SDP 50 mg/kg), a high-dose Saposhnikovia divaricata polysaccharide (SDP 200 mg/kg) group, and a positive drug (Glibenclamide, GLI 25 mg/kg) control group, 10 mice per group. For each dosing group, the mice were dosed by oral gavage at 0.2 ml/10 g body weight at 8:00 am every day. The normal control group and the model group were given an equal volume of distilled water. During the experiment, the mice in each group were allowed to access to water ad arbitrium. The FBG and body weight were measured every 10 days. 30 days after the dosing, the mice were treated, and the following indexes were measured.
(1) Glucose tolerance: The mice were fasted at 8:00 the day before the end of the experiment. After 4 h, blood was collected from the orbit, and FBG was measured as the blood glucose level before administration of glucose (0 h). Then, all mice were intraperitoneally injected with a 10% glucose solution at 0.2 ml/10 g body weight. 0.5 hour (0.5 h) and 2 hours (2 h) after intraperitoneal injection of glucose, blood was collected from the orbit, and the blood glucose value was measured. The area under the blood glucose curve (AUC) was calculated according to the following equation: […]

| Compound | liver weight coefficient [1] | liver TC content ([1]; vs high-fat model group, P<0.01) | FBG ([2]; Day 0) [mmol/L] | FBG ([2]; Day 10) [mmol/L] | FBG ([2]; Day 20) [mmol/L] | FBG ([2]; Day 30) [mmol/L] | Blood glucose ([3]; 0 h (before glucose), after 30 days dosing) [mmol/1] | Blood glucose ([3]; 0.5 h after i.p. glucose) [mmol/1] | Blood glucose ([3]; 2 h after i.p. glucose) [mmol/1] | Area under the curve (AUC) ([3]; blood glucose curve 0-2 h) |
| --- | --- | --- | --- | --- | --- | --- | --- | --- | --- | --- |
| CC(C)OC(=O)C(C)(C)Oc1ccc(C(=O)c2ccc(Cl)cc2)cc1 [Lipanthyl, Fenofibrate] | significantly increased | significantly lower |  |  |  |  |  |  |  |  |
| COc1ccc(Cl)cc1C(=O)NCCc1ccc(S(=O)(=O)NC(=O)NC2CCCCC2)cc1 [GLI, glibenclamide] |  |  | 12.58 ± 2.69 | 15.95 ± 1.57 | 18.56 ± 3.02 | 20.44 ± 2.25 | 20.44 ± 2.25 | 29.63 ± 2.24 | 27.60 ± 2.04 | 40.62 ± 2.86 |
